Laboratory results: US20230066946A1, “1,5-DIPHENYLPYRAZOLYL-3-OXYALKYL ACIDS AND 1-PHENYL-5-THIENYLPYRAZOLYL-3-OXYALKYL ACIDS AND THE USE THEREOF FOR CONTROL OF UNWANTED PLANT GROWTH” (Bayer Aktiengesellschaft, priority 2019, published 2023)

How the values were obtained:
harmful plants [1] = assay: Pre-emergence herbicidal action, summary of Tables 4.1-4.15; format: in vivo; conditions: result in words
From the text: (§1) Seeds of mono- and dicotyledonous weed plants are placed in plastic pots in sandy loam soil (doubly sown with one species each of mono- or dicotyledonous weed plants per pot) and covered with soil. The compounds of the invention, formulated in the form of wettable powders (WP) or as emulsion concentrates (EC), are then applied onto the surface of the covering soil as aqueous suspension or emulsion with addition of 0.5% additive at a water application rate equivalent to 600 litres per hectare. After the treatment, the pots are placed in a greenhouse and kept under good growth conditions for the trial plants. After about 3 weeks, the effect of the preparations is scored visually in comparison with untreated controls as percentages. For example, 100% activity=the plants have died, 0% activity=like control plants.
Tables 4.1-4.15 below show the effects of selected compounds of the general formula (I) according to Tables 1 to 3 on various harmful plants at an application rate corresponding to 1280 or 320 g/ha, which have been obtained by the aforementioned experimental method.
For example, compounds no. I-008, I-056, I-057, I-061, I-067, I-070 and I-072 applied by the pre-emergence method have very good action (80% to 100% herbicidal action) against harmful plants such as Alopecurus myosuroides, Amaranthus retroflexus, Matricaria inodora, Polygonum convolvulus, Setaria viridis and Stellaria media at an application rate of 1.28 kg of active substance or less per hectare.

AMARE [2] = assay: Post-emergence herbicidal action against AMARE; format: in vivo, Amaranthus retroflexus; conditions: visual rating about 3 weeks after treatment
Procedure, shortened: (§2)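 Herbicidal effect, rated visually about 3 weeks after treatment as percent versus untreated controls. Test plants in sandy loam had received a foliar application at the one-leaf stage of 1280 or 320 g/ha, formulated as WP or EC with 0.5% additive in 600 litres per hectare water.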

MATIN [3] = assay: Post-emergence herbicidal action against MATIN; format: in vivo, Matricaria inodora; conditions: visual rating about 3 weeks after treatment
Procedure, shortened: as §2

STEME [4] = assay: Pre-emergence herbicidal action against STEME; format: in vivo, Stellaria media; conditions: 1280 g/ha, scored visually after about 3 weeks vs untreated controls
Procedure, shortened: (§3)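 Weed seeds were sown in sandy loam soil in pots and covered; compounds formulated as WP or EC were sprayed onto the covering soil as aqueous suspension/emulsion with 0.5% additive at 600 L/ha water. Application rate 1280 or 320 g/ha. Greenhouse grown; visual % activity vs untreated controls after about 3 weeks.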

VERPE [5] = assay: Pre-emergence herbicidal action against VERPE; format: in vivo, Veronica persica; conditions: 320 g/ha, scored visually after about 3 weeks vs untreated controls
Procedure, shortened: as §3

VERPE [6] = assay: Post-emergence herbicidal action against VERPE; format: in vivo, Veronica persica; conditions: 320 g/ha, visual rating about 3 weeks after treatment
Procedure, shortened: as §2

AMARE [7] = assay: Pre-emergence herbicidal action against AMARE; format: in vivo, Amaranthus retroflexus; conditions: scored visually after about 3 weeks vs untreated controls; for Pre-emergence action at 320 g/ha against AMARE in %: 100% = plants have died, 0% = like control plants; for Pre-emergence action against AMARE in %: 1280 g/ha
Procedure, shortened: as §3

STEME [8] = assay: Post-emergence herbicidal action against STEME; format: in vivo, Stellaria media; conditions: visual rating about 3 weeks after treatment
Procedure, shortened: as §2

MATIN [9] = assay: Pre-emergence herbicidal action against MATIN; format: in vivo, Matricaria inodora; conditions: 1280 g/ha, scored visually after about 3 weeks vs untreated controls
From the text: as §1, with “control plants. [table] Tables 4.1-4.15 below show the effects of selected compounds of the general formula (I) according to Tables 1 to 3 on various harmful plants at an application rate corresponding to 1280 or 320 g/ha, which have been obtained by the aforementioned experimental method.” for “control plants.”

POLCO [10] = assay: Post-emergence herbicidal action against POLCO; format: in vivo, Polygonum convolvulus; conditions: 320 g/ha, visual rating about 3 weeks after treatment
Procedure, shortened: as §2

SETVI = assay: Pre-emergence herbicidal action against SETVI; format: in vivo, Setaria viridis; conditions: 1280 g/ha, scored visually after about 3 weeks vs untreated controls
Procedure, shortened: as §3

ALOMY [11] = assay: Pre-emergence herbicidal action against ALOMY; format: in vivo, Alopecurus myosuroides; conditions: scored visually after about 3 weeks vs untreated controls, 100% = plants have died, 0% = like control plants
From the text: as §1, with “control plants. [table] Tables 4.1-4.15 below show the effects of selected compounds of the general formula (I) according to Tables 1 to 3 on various harmful plants at an application rate corresponding to 1280 or 320 g/ha, which have been obtained by the aforementioned experimental method.” for “control plants.”

POLCO [12] = assay: Pre-emergence herbicidal action against POLCO; format: in vivo, Polygonum convolvulus; conditions: 320 g/ha, scored visually after about 3 weeks vs untreated controls
Procedure, shortened: as §3

PHBPU = assay: Post-emergence herbicidal action against PHBPU; format: in vivo, Pharbitis purpurea; conditions: 320 g/ha, visual rating about 3 weeks after treatment
Procedure, shortened: as §2

VIOTR = assay: Pre-emergence herbicidal action against VIOTR; format: in vivo, Viola tricolor; conditions: 1280 g/ha, scored visually after about 3 weeks vs untreated controls
From the text: as §1, with “control plants. [table] Tables 4.1-4.15 below show the effects of selected compounds of the general formula (I) according to Tables 1 to 3 on various harmful plants at an application rate corresponding to 1280 or 320 g/ha, which have been obtained by the aforementioned experimental method.” for “control plants.”

ECHCG = assay: Post-emergence herbicidal action against ECHCG; format: in vivo, Echinochloa crus-galli; conditions: 1280 g/ha, post-emergence at one-leaf stage, rated visually after about 3 weeks vs untreated controls
Procedure, shortened: as §2

CYPES = assay: Pre-emergence herbicidal action against CYPES; format: in vivo, Cyperus esculentus; conditions: scored visually after about 3 weeks vs untreated controls, 100% = plants have died, 0% = like control plants
From the text: as §1, with “control plants. [table] Tables 4.1-4.15 below show the effects of selected compounds of the general formula (I) according to Tables 1 to 3 on various harmful plants at an application rate corresponding to 1280 or 320 g/ha, which have been obtained by the aforementioned experimental method.” for “control plants.”

harmful plants [13] = assay: Post-emergence herbicidal action, summary of Tables 5.1-5.16; format: in vivo; conditions: result in words
Protocol: Seeds of mono- and dicotyledonous weed plants are placed in plastic pots in sandy loam soil (twin sowing with one species each of mono- or dicotyledonous weed plants per pot), covered with soil and cultivated in a greenhouse under controlled growth conditions. 2 to 3 weeks after sowing, the test plants are treated at the one-leaf stage. The compounds of the invention, formulated in the form of wettable powders (WP) or as emulsion concentrates (EC), are applied to the green parts of the plants as aqueous suspension or emulsion with addition of 0.5% additive at a water application rate equivalent to 600 litres per hectare. After the test plants have been kept in the greenhouse under optimum growth conditions for about 3 weeks, the activity of the preparations is rated visually in comparison to untreated controls. For example, 100% activity=the plants have died, 0% activity=like control plants. Tables 5.1-5.16 below show the effects of selected compounds of the general formula (I) according to Tables 1 to 3 on various harmful plants at an application rate corresponding to 1280 or 320 g/ha, which have been obtained by the aforementioned experimental method. As the results from Tables 5.1-5.16 show, compounds of the invention have good herbicidal post-emergence efficacy against a broad spectrum of weed grasses and weeds. […] For example, compounds Nos. I-002, I-006, I-022, I-056 and I-072 applied by the post-emergence method have very good herbicidal action (80% to 100% herbicidal action) against harmful plants such as Alopecurus myosuroides, Amaranthus retroflexus, Matricaria inodora, Setaria viridis, Pharbitis purpurea and Stellaria media at an application rate of 1.28 kg of active substance or less per hectare.

ALOMY [14] = assay: Post-emergence herbicidal action against ALOMY; format: in vivo, Alopecurus myosuroides; conditions: 1280 g/ha, post-emergence at one-leaf stage, rated visually after about 3 weeks vs untreated controls
Protocol: [table] Seeds of mono- and dicotyledonous weed plants are placed in plastic pots in sandy loam soil (twin sowing with one species each of mono- or dicotyledonous weed plants per pot), covered with soil and cultivated in a greenhouse under controlled growth conditions. 2 to 3 weeks after sowing, the test plants are treated at the one-leaf stage. The compounds of the invention, formulated in the form of wettable powders (WP) or as emulsion concentrates (EC), are applied to the green parts of the plants as aqueous suspension or emulsion with addition of 0.5% additive at a water application rate equivalent to 600 litres per hectare. After the test plants have been kept in the greenhouse under optimum growth conditions for about 3 weeks, the activity of the preparations is rated visually in comparison to untreated controls. For example, 100% activity=the plants have died, 0% activity=like control plants. Tables 5.1-5.16 below show the effects of selected compounds of the general formula (I) according to Tables 1 to 3 on various harmful plants at an application rate corresponding to 1280 or 320 g/ha, which have been obtained by the aforementioned experimental method.

| SMILES | herbicidal efficacy against harmful plants in the case of pre-emergence treatment (harmful plants [1]) | Post-emergence action against AMARE in % (AMARE [2]; 320 g/ha) [%] | Post-emergence action against AMARE in % (AMARE [2]; 1280 g/ha) [%] | Post-emergence action against MATIN in % (MATIN [3]; 1280 g/ha) [%] | Pre-emergence action against STEME in % (STEME [4]) [%] | Pre-emergence action against VERPE in % (VERPE [5]) [%] | Post-emergence action against VERPE in % (VERPE [6]) [%] | Pre-emergence action at 320 g/ha against AMARE in % (AMARE [7]) [%] | Pre-emergence action against AMARE in % (AMARE [7]) [%] | Post-emergence action against STEME in % (STEME [8]; 320 g/ha) [%] | Post-emergence action against STEME in % (STEME [8]; 1280 g/ha) [%] | Pre-emergence action against MATIN in % (MATIN [9]) [%] | Pre-emergence action at 1280 g/ha against ALOMY in % (ALOMY [11]) [%] | also measured |
| --- | --- | --- | --- | --- | --- | --- | --- | --- | --- | --- | --- | --- | --- | --- |
| COC(=O)COc1nn(-c2ccccc2)c(-c2ccc(F)cc2)c1Cl [I-008] | good herbicidal efficacy | 80 | 80 | 90 | 100 | 90 | 90 | 100 | 100 | 90 | 90 | 90 | 100 | Post-emergence action against MATIN in % (MATIN [3]; 320 g/ha): 90%; Post-emergence action against POLCO in % (POLCO [10]): 80%; Pre-emergence action against SETVI in % (SETVI): 90%; Pre-emergence action against POLCO in % (POLCO [12]): 80% |
| COC(=O)COc1nn(-c2ccccc2)c(-c2cccc(F)c2)c1C#N [I-021] | good herbicidal efficacy | 80 | 80 | 80 | 90 | 90 |  | 100 | 100 | 80 | 80 | 90 |  | Post-emergence action against PHBPU in % (PHBPU): 80%; Pre-emergence action against VIOTR in % (VIOTR): 90%; Post-emergence action against ECHCG in % (ECHCG): 80%; Pre-emergence action at 1280 g/ha against CYPES in % (CYPES): 100%; herbicidal efficacy against harmful plants when applied post-emergence (harmful plants [13]): very good herbicidal efficacy; Post-emergence action against ALOMY in % (ALOMY [14]): 80% |
| COC(=O)COc1nn(-c2ccc(Cl)cc2)c(-c2ccc(F)cc2)c1Cl [I-007] |  |  | 80 |  | 90 |  | 90 | 80 | 100 |  |  |  | 80 |  |
